Assay results published in ChEMBL document CHEMBL1201862, “PubChem BioAssay data set” (2004).
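96-well plates; 48 h exposure; 5 concentrations. Endpoints by linear interpolation between flanking doses. Not reached: highest tested concentration assigned. GI50 = concentration required for 50% inhibition of growth.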 Activity calls are given as the source filed them. No stated cut-off is given here; in the data, active = GI50 up to about 1.1 µM and inactive = higher.

Tests used:
Experiment in all cases: NCI anticancer screen, dose series, 48 h
HCT-15 = system: HCT-15
SF-268 = system: SF-268
RXF 393 = system: RXF 393
SF-539 = system: SF-539
OVCAR-4 = system: OVCAR-4
UO-31 = system: UO-31
MDA-MB-435 = system: MDA-MB-435
HL-60 = system: HL-60
T47D = system: T47D
U-251 = system: U-251
TK-10 = system: TK-10
SK-MEL-5 = system: SK-MEL-5
A498 = system: A498
HCT-116 = system: HCT-116
NCI/ADR-RES = system: NCI/ADR-RES
SF-295 = system: SF-295
COLO 205 = system: COLO 205
A549 = system: A549
M14 = system: M14
Malme-3M = system: Malme-3M
MOLT-4 = system: MOLT-4
SR = system: SR
BT-549 = system: BT-549
SNB-75 = system: SNB-75
CAKI-1 = system: CAKI-1
MCF7 = system: MCF7
RPMI-8226 = system: RPMI-8226
DU-145 = system: DU-145
KM12 = system: KM12
HOP-92 = system: HOP-92
UACC-62 = system: UACC-62
OVCAR-3 = system: OVCAR-3
SK-OV-3 = system: SK-OV-3
OVCAR-5 = system: OVCAR-5
MDA-MB-231 = system: MDA-MB-231
SW-620 = system: SW-620
EKVX = system: EKVX
PC-3 = system: PC-3
786-0 = system: 786-0
HCC 2998 = system: HCC 2998
NCI-H460 = system: NCI-H460
NCI-H23 = system: NCI-H23
SNB-19 = system: SNB-19
SK-MEL-2 = system: SK-MEL-2
ACHN = system: ACHN
HOP-62 = system: HOP-62
SN12C = system: SN12C
NCI-H522 = system: NCI-H522
Hs-578T = system: Hs-578T
NCI-H226 = system: NCI-H226
HT-29 = system: HT-29
UACC-257 = system: UACC-257
OVCAR-8 = system: OVCAR-8
CCRF-CEM = system: CCRF-CEM
SK-MEL-28 = system: SK-MEL-28
K562 = system: K562
LOX IMVI = system: LOX IMVI
IGROV-1 = system: IGROV-1

Measured: GI50

COc1ccc2c(c1)CC[C@@H]1[C@@H]2CC[C@]2(C)C(=O)/C(=C/c3cc(OC)c(OC)c(OC)c3)C[C@@H]12
70 µM: HCT-15
active: SF-268 0.0149 µM
inactive: RXF 393 29.6 µM | SF-539 28.2 µM | OVCAR-4 40.4 µM | UO-31 47.2 µM | MDA-MB-435 > 100 µM | HL-60 > 100 µM | T47D 67 µM | U-251 34.8 µM | TK-10 19.4 µM | SK-MEL-5 71.3 µM | A498 59 µM | HCT-116 31.6 µM | NCI/ADR-RES 15.4 µM | SF-295 29.4 µM | COLO 205 87.1 µM | A549 40.9 µM | M14 23.2 µM | Malme-3M 17.8 µM | MOLT-4 95.9 µM | SR 15.2 µM | BT-549 26.3 µM | SNB-75 19.4 µM | CAKI-1 27.7 µM | MCF7 42.5 µM | RPMI-8226 > 100 µM | DU-145 42.4 µM | KM12 29 µM | HOP-92 22.2 µM | UACC-62 30.2 µM | OVCAR-3 19.5 µM | SK-OV-3 44 µM | OVCAR-5 24.4 µM | MDA-MB-231 18.1 µM | SW-620 > 100 µM | EKVX 61.2 µM | PC-3 14 µM | 786-0 19.2 µM | HCC 2998 42.8 µM | NCI-H460 31.8 µM | NCI-H23 25 µM | SNB-19 52.6 µM | SK-MEL-2 19 µM | ACHN 21.7 µM | HOP-62 17 µM

Cc1cn(CC2=NC3CCCCC3N2)c(=O)[nH]c1=O (centres undefined)
inactive: SN12C > 100 µM | SF-268 > 100 µM | RXF 393 > 100 µM | UO-31 > 100 µM | HL-60 > 100 µM | T47D > 100 µM | U-251 > 100 µM | NCI-H522 > 100 µM | TK-10 > 100 µM | SK-MEL-5 > 100 µM | A498 > 100 µM | HCT-116 > 100 µM | Hs-578T > 100 µM | NCI/ADR-RES > 100 µM | SF-295 > 100 µM | COLO 205 > 100 µM | NCI-H226 > 100 µM | HT-29 > 100 µM | A549 > 100 µM | M14 > 100 µM | Malme-3M > 100 µM | MOLT-4 > 100 µM | SR > 100 µM | BT-549 > 100 µM | SNB-75 > 100 µM | MCF7 > 100 µM | RPMI-8226 > 100 µM | DU-145 > 100 µM | HOP-92 > 100 µM | UACC-257 > 100 µM | UACC-62 > 100 µM | OVCAR-8 > 100 µM | CCRF-CEM > 100 µM | SK-MEL-28 > 100 µM | SK-OV-3 > 100 µM | OVCAR-5 > 100 µM | K562 > 100 µM | MDA-MB-231 > 100 µM | SW-620 > 100 µM | EKVX > 100 µM | PC-3 > 100 µM | 786-0 > 100 µM | LOX IMVI > 100 µM | HCC 2998 > 100 µM | NCI-H460 > 100 µM | IGROV-1 > 100 µM | NCI-H23 > 100 µM | SNB-19 > 100 µM | SK-MEL-2 > 100 µM | ACHN > 100 µM | HOP-62 > 100 µM
> 100 µM: HCT-15

CN(C)CCSC1=Nc2ccc(Cl)cc2C(c2ccccc2Cl)=NC1
inactive: OVCAR-4 > 100 µM | MDA-MB-435 17.9 µM | HL-60 30.3 µM | Hs-578T 21.4 µM | MOLT-4 31.4 µM | BT-549 42.3 µM | SNB-75 30.1 µM | K562 34.6 µM | IGROV-1 92.5 µM | SK-MEL-2 > 100 µM

Nc1nc(N)c2ncn(-c3ccccc3)c2n1
inactive: SN12C 88.3 µM | SF-268 > 100 µM | RXF 393 57.9 µM | UO-31 68.2 µM | MDA-MB-435 > 100 µM | T47D > 100 µM | NCI-H522 > 100 µM | TK-10 > 100 µM | A498 > 100 µM | HCT-116 > 100 µM | Hs-578T 52.6 µM | NCI/ADR-RES > 100 µM | SF-295 > 100 µM | HT-29 > 100 µM | A549 48.9 µM | M14 > 100 µM | MOLT-4 29.6 µM | BT-549 > 100 µM | CAKI-1 82.6 µM | MCF7 63.8 µM | DU-145 > 100 µM | KM12 24.2 µM | HOP-92 > 100 µM | UACC-62 71 µM | OVCAR-3 89.9 µM | OVCAR-8 > 100 µM | CCRF-CEM 23.7 µM | SK-MEL-28 > 100 µM | SK-OV-3 > 100 µM | OVCAR-5 > 100 µM | MDA-MB-231 > 100 µM | PC-3 > 100 µM | HCC 2998 48.4 µM | IGROV-1 36.3 µM | NCI-H23 > 100 µM | ACHN > 100 µM
> 100 µM: HCT-15

Nc1cc(N2CCCC2)nc(=O)n1-c1ccccc1
inactive: SN12C > 100 µM | SF-539 > 100 µM | OVCAR-4 > 100 µM | MDA-MB-435 > 100 µM | HL-60 > 100 µM | U-251 > 100 µM | NCI-H522 > 100 µM | TK-10 > 100 µM | SK-MEL-5 > 100 µM | HCT-116 > 100 µM | NCI/ADR-RES > 100 µM | SF-295 > 100 µM | COLO 205 > 100 µM | NCI-H226 54.2 µM | HT-29 > 100 µM | A549 > 100 µM | M14 > 100 µM | Malme-3M > 100 µM | MOLT-4 > 100 µM | SR > 100 µM | BT-549 > 100 µM | SNB-75 > 100 µM | CAKI-1 > 100 µM | MCF7 > 100 µM | RPMI-8226 > 100 µM | DU-145 > 100 µM | KM12 > 100 µM | HOP-92 > 100 µM | UACC-257 > 100 µM | OVCAR-8 > 100 µM | CCRF-CEM > 100 µM | SK-MEL-28 > 100 µM | OVCAR-5 > 100 µM | K562 > 100 µM | MDA-MB-231 > 100 µM | SW-620 > 100 µM | EKVX > 100 µM | PC-3 > 100 µM | 786-0 > 100 µM | LOX IMVI > 100 µM | HCC 2998 20.7 µM | NCI-H460 > 100 µM | IGROV-1 > 100 µM | NCI-H23 > 100 µM | SNB-19 > 100 µM | SK-MEL-2 > 100 µM | ACHN > 100 µM | HOP-62 > 100 µM
> 100 µM: HCT-15
